The source of these data is patent US10550100B2, “5-[3-[piperzin-1-yl]-3-oxo-propyl]-imidazolidine-2,4-dione derivatives as ADAMTS 4 and 5 inhibitors for treating E.G. osteoarthritis” (GALAPAGOS NV, priority 2016, dated 2020).

What all share (format): biochemical
One assay has as its target human ADAMTS-5 (Homo sapiens (Human), UniProt Q9UNA0). The experiment in a line: hADAMTS-5 TBIS-1 cleavage assay, Protocol 2. The conditions noted are these: Protocol 2, TBIS-1 substrate, 45 min at 37° C.; read-out: hADAMTS-5 potency IC50. How it is done: The basis for the assay is the cleavage of the substrate TBIS-1 (5 FAM-[…] (5TAMRA)K-NH2) (SEQ ID NO: 2) by human ADAMTS-5.
(§1) The reaction is initiated by adding to the assay plate TBIS-1 (10 μL, 4.5 μM, Anaspec) in the same buffer.
Finally, the fluorescence is read on the Envision (Perkin Elmer) after an incubation of 45 min at 37° C. (Excitation 485 nm, emission 530).

The target of the next assay is human ADAMTS6 (Homo sapiens (Human), UniProt Q9UKP5). The experiment in a line: hADAMTS-6 520 MMP FRET substrate XII cleavage assay. As to conditions: 37° C. for 2 h, read-out: hADAMTS-6 potency IC50. In outline: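 FRET cleavage of 520 MMP Substrate XII (Arg-Pro-Lys-Pro-Tyr-Ala-Nva-Trp-Met-Lys) by 0.73 nM enzyme in 25 mM Tris pH8.0, 0.05% CHAPS, 2.5 mM CaCl2. Compound dilution series from 20 μM top, 1/5 steps; substrate added from 1 μM stock, 2 h at 37° C. Fluorescence read at exc485/em530 for IC50.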

The target in another assay is human TACE (Homo sapiens (Human), UniProt P78536). The experiment in a line: hTACE 5FAM-[…]-5TAMRA cleavage assay. As to conditions: 5FAM-LAQAVRSSSRK-5TAMRA, 75 min at room temperature; read-out: hTACE potency IC50. Here is the method:
Finally, the fluorescence is read on the Envision (Perkin Elmer) after an incubation of 75 min at room temperature (Excitation 485 nm, Emission 530).

Another assay has as its target rnADAMTS-5 (1-564-6H) (Rattus norvegicus (Rat), UniProt Q6TY19). Nature of the assay: Rat ADAMTS-5 TBIS-1 substrate cleavage assay. As to conditions: rnADAMTS-5, TBIS-1 substrate, 120 min at 37° C.; read-out: Rat ADAMTS-5 potency IC50. Here is the method:
The basis for the assay is the cleavage of the substrate TBIS-1 (5 FAM-[…] (5TAMRA)K-NH2) (SEQ ID NO: 2) by rnADAMTS-5 (1-564-6H).
as §1
Finally, the fluorescence is read on the Envision (Perkin Elmer) after an incubation of 120 min at 37° C. (Excitation 485 nm, emission 535).

Another assay has as its target human MMP13 (Homo sapiens (Human), UniProt P45452). The experiment in a line: hMMP13 390 MMP FRET Substrate I cleavage assay, Protocol 1. As to conditions: Protocol 1, 390 MMP FRET Substrate I; read-out: hMMP-13 potency IC50. In outline: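 Human MMP13 was preactivated with 1 mM p-aminophenylmercuric acetate for 1 h at 37° C. Cleavage of 390 MMP FRET Substrate I (2.5 μM as added) ran 45 min at room temperature, with fluorescence read at 485 nm excitation and 530 nm emission.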

Sequence of rnADAMTS-5 (1-564-6H) (Q6TY19 entry or part of it): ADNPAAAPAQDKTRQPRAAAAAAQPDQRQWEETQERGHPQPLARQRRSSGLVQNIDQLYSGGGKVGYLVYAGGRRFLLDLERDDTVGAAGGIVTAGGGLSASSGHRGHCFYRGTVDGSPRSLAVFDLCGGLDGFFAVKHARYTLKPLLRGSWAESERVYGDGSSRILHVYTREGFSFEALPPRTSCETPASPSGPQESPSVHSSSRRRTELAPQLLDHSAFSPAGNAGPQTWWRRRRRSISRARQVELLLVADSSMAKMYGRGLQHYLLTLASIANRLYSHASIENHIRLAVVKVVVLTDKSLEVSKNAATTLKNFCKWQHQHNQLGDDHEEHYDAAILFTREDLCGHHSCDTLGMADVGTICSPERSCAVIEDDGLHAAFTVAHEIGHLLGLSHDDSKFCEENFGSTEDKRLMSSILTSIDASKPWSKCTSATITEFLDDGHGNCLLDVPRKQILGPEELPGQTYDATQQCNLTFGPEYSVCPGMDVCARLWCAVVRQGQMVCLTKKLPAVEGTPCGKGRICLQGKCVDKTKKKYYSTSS
Sequence of human ADAMTS6 (Q9UKP5 other isoform, or with tags, fused parts or gaps): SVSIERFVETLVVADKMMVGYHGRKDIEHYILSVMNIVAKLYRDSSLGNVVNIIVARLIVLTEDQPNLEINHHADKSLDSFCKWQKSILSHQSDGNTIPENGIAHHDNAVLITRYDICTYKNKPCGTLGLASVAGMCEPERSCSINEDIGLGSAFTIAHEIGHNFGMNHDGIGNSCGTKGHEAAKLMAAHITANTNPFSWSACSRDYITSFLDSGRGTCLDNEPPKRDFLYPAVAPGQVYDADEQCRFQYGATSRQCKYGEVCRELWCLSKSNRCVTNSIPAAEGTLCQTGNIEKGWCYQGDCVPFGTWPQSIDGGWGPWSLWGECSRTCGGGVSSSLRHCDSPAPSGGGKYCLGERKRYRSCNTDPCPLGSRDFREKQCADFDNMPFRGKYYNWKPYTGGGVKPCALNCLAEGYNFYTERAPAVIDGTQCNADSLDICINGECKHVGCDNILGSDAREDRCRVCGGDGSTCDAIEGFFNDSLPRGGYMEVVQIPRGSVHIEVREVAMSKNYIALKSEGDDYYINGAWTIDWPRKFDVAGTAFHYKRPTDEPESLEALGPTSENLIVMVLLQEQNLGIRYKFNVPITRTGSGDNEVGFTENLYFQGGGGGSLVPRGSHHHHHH
Sequence of human TACE (P78536 215-671): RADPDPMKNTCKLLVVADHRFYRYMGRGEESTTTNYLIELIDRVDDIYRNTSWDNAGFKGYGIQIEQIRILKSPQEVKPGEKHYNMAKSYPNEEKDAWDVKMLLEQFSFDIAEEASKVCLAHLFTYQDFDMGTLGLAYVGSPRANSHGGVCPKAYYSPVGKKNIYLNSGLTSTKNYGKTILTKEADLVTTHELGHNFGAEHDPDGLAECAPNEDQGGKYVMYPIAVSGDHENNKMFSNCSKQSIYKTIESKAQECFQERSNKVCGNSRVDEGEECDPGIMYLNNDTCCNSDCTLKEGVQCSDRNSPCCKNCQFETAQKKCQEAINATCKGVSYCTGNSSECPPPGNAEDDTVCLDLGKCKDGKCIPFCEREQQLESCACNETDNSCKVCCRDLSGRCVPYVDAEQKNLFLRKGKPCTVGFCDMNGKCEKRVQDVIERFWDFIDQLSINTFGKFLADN
Sequence of human ADAMTS-5 (Q9UNA0 262-930): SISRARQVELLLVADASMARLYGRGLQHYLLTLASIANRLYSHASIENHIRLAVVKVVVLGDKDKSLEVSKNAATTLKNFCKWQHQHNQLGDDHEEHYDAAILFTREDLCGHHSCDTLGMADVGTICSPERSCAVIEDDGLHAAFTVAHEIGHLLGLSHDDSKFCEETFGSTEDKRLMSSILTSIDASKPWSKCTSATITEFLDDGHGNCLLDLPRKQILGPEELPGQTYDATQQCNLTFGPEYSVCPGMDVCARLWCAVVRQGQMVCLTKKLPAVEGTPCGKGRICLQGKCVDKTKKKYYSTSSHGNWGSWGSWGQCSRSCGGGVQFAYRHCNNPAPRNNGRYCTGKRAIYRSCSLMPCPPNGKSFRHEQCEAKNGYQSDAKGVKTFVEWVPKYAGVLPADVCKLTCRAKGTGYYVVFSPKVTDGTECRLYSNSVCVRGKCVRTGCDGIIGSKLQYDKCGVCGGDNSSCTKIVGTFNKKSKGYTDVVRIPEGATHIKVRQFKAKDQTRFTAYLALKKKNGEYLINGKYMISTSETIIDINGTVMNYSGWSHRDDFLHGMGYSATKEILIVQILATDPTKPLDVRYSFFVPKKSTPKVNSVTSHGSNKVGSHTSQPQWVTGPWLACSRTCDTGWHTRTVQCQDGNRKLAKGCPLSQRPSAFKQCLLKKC

As to `O=C1NC(=O)C(CCC(=O)N2CCC(c3ccccc3)CC2)N1` (stereo not drawn) [Cpd 2, 5-[3-oxo-3-(4-phenyl-1-piperidyl)propyl] imidazolidine-2,4-dione], the IC50 on human ADAMTS-5, on human ADAMTS6 and on human TACE was more than 100 nM throughout.

Regarding `O=C1NC(=O)C(CCC(=O)N2CCC(c3ccccc3)CC2)(c2cccnc2)N1` (stereo not drawn) [Cpd 16, 5-(3-oxo-3-(4-phenyl-piperidin-1-yl)propyl)-5-(pyridin-3-yl)imidazolidine-2,4-dione], the 50% inhibitory concentration (IC50) (commonly the midpoint of a concentration-inhibition curve) at human ADAMTS-5 was 50 to 100 nM; on human ADAMTS6, more than 100 nM; at rnADAMTS-5 (1-564-6H) it was 50 to 100 nM; at human MMP13 it was more than 100 nM; at human TACE, more than 100 nM.

Turning to `O=C1NC(=O)C(CCC(=O)N2CCC(c3ccccc3)CC2)(c2ccccc2)N1` (stereo not drawn) [Cpd 3, 5-(3-oxo-3-(4-phenylpiperidin-1-yl)propyl)-5-phenyl imidazolidine-2,4-dione], the IC50 at human ADAMTS-5 was 50 to 100 nM; at human ADAMTS6 it was more than 100 nM; on rnADAMTS-5 (1-564-6H), 50 to 100 nM; on human TACE it was more than 100 nM.

Regarding `CC1(CCC(=O)N2CCC(c3cc(Cl)cc(Cl)c3)CC2)NC(=O)NC1=O` (stereo not drawn) [Cpd 9, 5-(3-(4-(3,5-dichlorophenyl)piperidin-1-yl)-3-oxopropyl)-5-methyl-imidazolidine-2,4-dione], the half-inhibitory concentration (IC50) at human ADAMTS-5 was 50 to 100 nM; on human ADAMTS6 it was 25 to 50 nM; at rnADAMTS-5 (1-564-6H), more than 100 nM; at human MMP13, more than 100 nM; at human TACE it was more than 100 nM.

For `CC1(CCC(=O)N2CCC(c3cccc(Cl)c3)CC2)NC(=O)NC1=O` (stereo not drawn) [Cpd 11, 5-(3-(4-(3-chlorophenyl)piperidin-1-yl)-3-oxopropyl)-5-methyl-imidazolidine-2,4-dione], the IC50 on human ADAMTS-5 was more than 100 nM; at human ADAMTS6, 50 to 100 nM; at human MMP13 it was more than 100 nM; at human TACE, more than 100 nM.

Consider `CC1(CCC(=O)N2CCC(c3ccc(F)cc3)CC2)NC(=O)NC1=O` (stereo not drawn) [Cpd 10, 5-(3-(4-(4-fluorophenyl)piperidin-1-yl)-3-oxopropyl)-5-methyl-imidazolidine-2,4-dione], for which the concentration for half-maximal inhibition (IC50) on human ADAMTS-5, on human ADAMTS6, at human MMP13 and at human TACE was more than 100 nM in each case.

Turning to `O=C1NC(=O)C(CCC(=O)N2CCC(c3ccccc3)CC2)(C2CC2)N1` (stereo not drawn) [Cpd 7, 5-cyclopropyl-5-(3-oxo-3-(4-phenylpiperidin-1-yl)propyl) imidazolidine-2,4-dione], the IC50 on human ADAMTS-5 is 50 to 100 nM; on human ADAMTS6 it was more than 100 nM; on rnADAMTS-5 (1-564-6H) it was 50 to 100 nM; on human MMP13, more than 100 nM; at human TACE, more than 100 nM.

Take `Cc1cccc(C2CCN(C(=O)CCC3(C)NC(=O)NC3=O)CC2)c1` (stereo not drawn) [Cpd 15, 5-methyl-5-(3-oxo-3-(4-m-tolylpiperidin-1-yl)propyl) imidazolidine-2,4-dione]: the 50% inhibitory concentration (IC50) at human ADAMTS-5 and on human ADAMTS6 was more than 100 nM in each case.

With `CC1(CCC(=O)N2CCC(c3ccc(Cl)cc3)CC2)NC(=O)NC1=O` (stereo not drawn) [Cpd 12, 5-(3-(4-(4-chlorophenyl)piperidin-1-yl)-3-oxopropyl)-5-methyl-imidazolidine-2,4-dione], the half-inhibitory concentration (IC50) was more than 100 nM on human ADAMTS-5, 50 to 100 nM at human ADAMTS6, more than 100 nM on human MMP13 and more than 100 nM on human TACE.

With `CC1(CCC(=O)N2CCC(c3ccccc3)CC2)NC(=O)NC1=O` (stereo not drawn) [Cpd 4, 5-methyl-5-(3-oxo-3-(4-phenylpiperidin-1-yl)propyl) imidazolidine-2,4-dione], the IC50 at human ADAMTS-5, on human ADAMTS6 and on human TACE was more than 100 nM throughout.

For `COc1ccccc1C1CCN(C(=O)CCC2(C)NC(=O)NC2=O)CC1` (stereo not drawn) [Cpd 6, 5-(3-(4-(2-methoxyphenyl)piperidin-1-yl)-3-oxopropyl)-5-methyl-imidazolidine-2,4-dione], the IC50 at human ADAMTS-5 and on human ADAMTS6 was more than 100 nM throughout.

As to `CC(C)C1(CCC(=O)N2CCC(c3ccccc3)CC2)NC(=O)NC1=O` (stereo not drawn) [Cpd 5, 5-isopropyl-5-(3-oxo-3-(4-phenylpiperidin-1-yl)propyl) imidazolidine-2,4-dione], the IC50 was 50 to 100 nM at human ADAMTS-5, more than 100 nM at human ADAMTS6 and more than 100 nM at human TACE.

Regarding `Cc1ccc(C2CCN(C(=O)CCC3(C)NC(=O)NC3=O)CC2)cc1` (stereo not drawn) [Cpd 8, 5-methyl-5-(3-oxo-3-(4-p-tolylpiperidin-1-yl)propyl) imidazolidine-2,4-dione], the IC50 on human ADAMTS-5 and at human ADAMTS6 was more than 100 nM in each case.

Turning to `CC1(CCC(=O)N2CCC(c3cccc(F)c3)CC2)NC(=O)NC1=O` (stereo not drawn) [Cpd 13, 5-(3-(4-(3-fluorophenyl)piperidin-1-yl)-3-oxopropyl)-5-methyl-imidazolidine-2,4-dione], the 50% inhibitory concentration (IC50) at human ADAMTS-5 and on human ADAMTS6 was more than 100 nM in each case.
